{
  "source": "patent US9066886B2",
  "about": "“Transdermal drug delivery system containing granisetron” (TAHO PHARMACEUTICALS, LTD., priority 2008, dated 2015)",
  "origin": "cited, not measured here",
  "conditions": "tablet with 1 mg of granisetron; from Korean Patent Laid-Open Publication No. 10-2005-0116365",
  "data": [
    {"compound": "CN1C2CCCC1CC(NC(=O)c1nn(C)c3ccccc13)C2", "note": "(stereo not shown) [granisetron]", "values": [
      {"measurement": "Cmax", "result": 3.6, "unit": "ng/mL"}
    ]}
  ]
}
